{"source": "patent US8519173B2", "about": "“Plant growth regulator” (Shiseido Company, Ltd., priority 2009, dated 2013)", "key": {"[1]": {"tested_on": "morning glory (variety: Murasaki)", "test": "Bud formation promotion activity on morning glory", "assay_type": "in vivo", "details": "sprayed at 100 μM; treatment in dark 14 h or 15 h; buds measured on day 14 under continuous light at 25° C.; N=8 plants; compared with water (FIG. 1)", "experimental": "9 g of morning glory (variety: Murasaki) seeds were treated with concentrated sulfuric acid for 20 minutes followed by allowing to stand overnight in running water. Next, the seeds were allowed to take root by allowing to stand for 24 hours on wet sea sand with the omphalos portion of the seed facing upward. The seeds that had taken root were planted to a depth of about 1.5 cm to 2.0 cm in sea sand and cultured under continuous light (for about 5 days).\nAll of the morning glory plants that foliated as a result of this culturing were transferred to a culture broth (containing KNO3 (250 mg), NH4NO3 (250 mg), KH2PO4 (250 mg), MgSO4.7H2O (250 mg), MnSO4.4H2O (1 mg), Fe-citrate-n-hydrate (6 mg), H3BO3 (2 mg), CuSO4.5H2O (0.1 mg), ZeSO4.7H2O (0.2 mg), Na2MoO4.2H2O (0.2 mg) and Ca(H2PO4)2.2H2O (250 mg) in 1000 mL of distilled water).\n0.10 μM and 100 μM aqueous solutions of the present ketol fatty acid derivative obtained in the aforementioned Example 1 were sprayed onto this culture system and subjected to treatment in dark for 14 hours or 15 hours. Following this treatment in dark, water or the present ketol fatty acid derivative was sprayed again followed by growing the plants under continuous light for 14 days at 25° C. and measuring the buds that formed on day 14. […]"}, "[2]": {"test": "Stability on standing at room temperature", "assay_type": "physicochemical", "details": "allowed to stand at room temperature"}}, "data": [{"smiles": "CC/C=C\\CC1CC1CC(=O)C(O)CCCCCCCC(=O)O", "note": "(centres unmarked)", "values": [{"measurement": "increase in number of buds that formed", "setting": "[1]", "value": "more than 200%"}]}, {"smiles": "CC/C=C\\C/C=C\\CC(=O)C(O)CCCCCCCC(=O)O", "note": "(stereo not drawn) [α-ketol unsaturated fatty acid]", "values": [{"measurement": "stability (loss of activity)", "setting": "[2]", "value": "losing activity in a few days"}]}]}
